Source: ChEMBL document CHEMBL3400086, “Thieno[2,3-b]pyridines as negative allosteric modulators of metabotropic GluR5 receptors: Lead optimization” (Bioorg Med Chem Lett, 2015)

Tests used:
[1] = biological target: Metabotropic glutamate receptor 5 (Rattus norvegicus, UniProt P31424); test: Displacement of [3H]-M-MPEP from rat cerebrocortical mGluR5 receptor
[2] = tested on: Liver microsome; test: Intrinsic clearance in human liver microsomes measured per gram of tissue at 2.5 uM; assay type: ADME
[3] = tested on: Liver microsome; test: Intrinsic clearance in Wistar rat liver microsomes measured per gram of tissue at 2.5 uM; assay type: ADME

Sequence of Metabotropic glutamate receptor 5 (P31424 whole entry): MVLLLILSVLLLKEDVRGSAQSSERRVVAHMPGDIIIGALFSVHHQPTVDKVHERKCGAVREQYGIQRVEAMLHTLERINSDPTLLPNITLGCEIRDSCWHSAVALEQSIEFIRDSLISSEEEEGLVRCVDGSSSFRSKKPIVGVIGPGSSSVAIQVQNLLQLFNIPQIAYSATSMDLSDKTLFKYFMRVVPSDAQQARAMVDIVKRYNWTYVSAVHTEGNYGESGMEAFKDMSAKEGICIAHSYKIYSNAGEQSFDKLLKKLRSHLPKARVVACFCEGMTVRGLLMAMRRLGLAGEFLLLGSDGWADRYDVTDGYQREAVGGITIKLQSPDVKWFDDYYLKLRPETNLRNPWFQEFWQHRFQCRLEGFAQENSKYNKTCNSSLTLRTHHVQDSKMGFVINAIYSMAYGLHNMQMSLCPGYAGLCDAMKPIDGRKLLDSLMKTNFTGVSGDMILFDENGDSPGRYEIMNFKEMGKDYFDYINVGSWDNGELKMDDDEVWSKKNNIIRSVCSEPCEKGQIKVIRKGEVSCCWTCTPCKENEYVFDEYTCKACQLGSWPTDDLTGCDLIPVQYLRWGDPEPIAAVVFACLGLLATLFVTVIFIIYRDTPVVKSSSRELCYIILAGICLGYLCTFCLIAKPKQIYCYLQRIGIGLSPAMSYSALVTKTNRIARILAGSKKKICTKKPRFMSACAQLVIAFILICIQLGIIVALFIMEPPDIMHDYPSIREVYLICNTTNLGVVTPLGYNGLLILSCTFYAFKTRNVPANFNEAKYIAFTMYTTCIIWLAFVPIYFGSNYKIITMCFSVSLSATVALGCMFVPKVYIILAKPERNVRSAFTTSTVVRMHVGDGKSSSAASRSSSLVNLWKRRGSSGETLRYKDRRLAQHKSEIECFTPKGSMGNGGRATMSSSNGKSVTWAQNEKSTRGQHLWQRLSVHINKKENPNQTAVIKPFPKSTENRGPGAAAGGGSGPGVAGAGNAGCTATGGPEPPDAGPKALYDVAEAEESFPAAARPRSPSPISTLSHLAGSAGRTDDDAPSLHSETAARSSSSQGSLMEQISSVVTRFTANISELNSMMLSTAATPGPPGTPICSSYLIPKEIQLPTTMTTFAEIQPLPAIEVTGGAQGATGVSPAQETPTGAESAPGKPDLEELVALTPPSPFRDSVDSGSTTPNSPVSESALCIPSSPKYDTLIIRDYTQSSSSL

Compound	Ki [1] [nM]	CLH [2] [mL/min/g]	CLH [3] [mL/min/g]
N#Cc1cc(F)cc(S(=O)(=O)c2sc3ncc(N)cc3c2-c2c(F)cncc2F)c1	19	0.4	0.8
N#Cc1cccc(S(=O)(=O)c2sc3ncc(N)cc3c2-c2ccc(F)cc2)c1	8.8	1.3	3.8
Nc1ccnc2sc(S(=O)(=O)c3ccc(Cl)cc3)c(-c3ccc(Cl)cc3)c12	14.8	2.9	10.1
N#Cc1cccc(S(=O)(=O)c2sc3ncc(N)cc3c2-c2ccccc2F)c1	1.8	0.6	2.5
O=S(=O)(c1ccc(Cl)cc1)c1sc2ncc(F)cc2c1-c1ccc(Cl)cc1	124	0.3	1.7
O=S(=O)(c1ccc(Cl)cc1)c1sc2ncccc2c1-c1ccc(F)cc1F	27	3.3	11.1
N#Cc1cccc(S(=O)(=O)c2sc3ncc(N)cc3c2-c2cccc(Cl)c2)c1	14.3	0.01	0.01
O=S(=O)(c1cccc(C(F)(F)F)c1)c1sc2ncccc2c1-c1ccc(Cl)cc1	54		
O=S(=O)(c1cc(F)cc(C(F)(F)F)c1)c1sc2ncccc2c1-c1ccc(Cl)cc1	41		
CS(=O)(=O)Nc1cnc2sc(S(=O)(=O)c3ccc(Cl)cc3)c(-c3ccc(Cl)cc3)c2c1	166	0.4	1.1
N#Cc1cccc(S(=O)(=O)c2sc3ncccc3c2-c2ccccc2Cl)c1	3.5	3.2	11.2
O=S(=O)(c1cccc(Cl)c1)c1sc2ncccc2c1-c1ccc(Cl)cc1	15.9		
O=C(Nc1cccc(Cl)c1)O/N=C1\CCCCC1Cc1cccs1 (stereo not given)	9.1		
O=S(=O)(c1cccc(F)c1)c1sc2ncccc2c1-c1ccc(Cl)cc1	43		
O=S(=O)(c1ccc(Cl)cc1)c1sc2ncccc2c1-c1cnccc1F	61	2.6	10.5
O=S(=O)(c1ccc(Cl)cc1Cl)c1sc2ncccc2c1-c1ccc(Cl)cc1	105		
N#Cc1cccc(S(=O)(=O)c2sc3ncc(N)cc3c2-c2cccc(F)c2)c1	4.2	0.01	0.01
Cc1ccc(S(=O)(=O)c2sc3ncccc3c2-c2ccc(Cl)cc2)cc1Cl	6.8		
O=S(=O)(c1ccc(Cl)c(Cl)c1)c1sc2ncccc2c1-c1ccc(Cl)cc1	10.7		
Nc1cnc2sc(S(=O)(=O)c3ccc(Cl)cc3)c(-c3ccccc3F)c2c1	58	1.9	2.8
O=S(=O)(c1cccnc1)c1sc2ncccc2c1-c1ccc(Cl)cc1	289		
O=S(=O)(c1cc(F)cc(F)c1)c1sc2ncccc2c1-c1ccc(Cl)cc1	36		
Cc1cc(C)cc(S(=O)(=O)c2sc3ncccc3c2-c2ccc(Cl)cc2)c1	24		

Continued, values first:

Ki [1] [nM]	CLH [2] [mL/min/g]	CLH [3] [mL/min/g]	Compound
66			CC(C)c1ccc(S(=O)(=O)c2sc3ncccc3c2-c2ccc(Cl)cc2)cc1
15.4			Cc1ccc(S(=O)(=O)c2sc3ncccc3c2-c2ccc(Cl)cc2)cc1
9.3			Cc1cccc(S(=O)(=O)c2sc3ncccc3c2-c2ccc(Cl)cc2)c1
96			O=S(=O)(c1ccccc1)c1sc2ncccc2c1-c1ccc(Cl)cc1
11.8			Cc1ccc(S(=O)(=O)c2sc3ncccc3c2-c2ccc(Cl)cc2)cc1F
15.6			O=S(=O)(c1ccc(F)cc1)c1sc2ncccc2c1-c1ccc(Cl)cc1
272			O=S(=O)(c1ccc(C(F)(F)F)cc1)c1sc2ncccc2c1-c1ccc(Cl)cc1
36			N#Cc1ccc(S(=O)(=O)c2sc3ncccc3c2-c2ccc(Cl)cc2)cc1
20			COc1ccc(S(=O)(=O)c2sc3ncccc3c2-c2ccc(Cl)cc2)cc1
7.9			COc1ccc(S(=O)(=O)c2sc3ncccc3c2-c2ccc(Cl)cc2)cc1F
9.5			COc1cccc(S(=O)(=O)c2sc3ncccc3c2-c2ccc(Cl)cc2)c1
52			CN(C)c1ccc(S(=O)(=O)c2sc3ncccc3c2-c2ccc(Cl)cc2)cc1
3.3			Cc1ccc(S(=O)(=O)c2sc3ncccc3c2-c2ccc(Cl)cc2)cc1C
